{
  "source": "ChEMBL document CHEMBL2074141",
  "about": "“Comparison of lactate transport in astroglial cells and monocarboxylate transporter 1 (MCT 1) expressing Xenopus laevis oocytes. Expression of two different monocarboxylate transporters in astroglial cells and neurons” (J Biol Chem, 1997)",
  "assay_type_in_all_cases": "functional, cell-based",
  "set-up_in_all_cases": "scale not given: the % may be the effect or the level left",
  "settings_in_all_cases": "Oocyte",
  "key": {"[1]": {"target": "Monocarboxylate transporter 1 (Rattus norvegicus) (UniProt P53987)", "test": "TP_TRANSPORTER: inhibition of lactate uptake (Lactate:0.1mM, pCMBS:1mM, preincubation with aminoxyacetate) in Xenopus laevis oocytes"}, "[2]": {"target": "T1, Monocarboxylate transporter 1 (Rattus norvegicus) (UniProt P53987)", "T1 sequence (whole entry)": "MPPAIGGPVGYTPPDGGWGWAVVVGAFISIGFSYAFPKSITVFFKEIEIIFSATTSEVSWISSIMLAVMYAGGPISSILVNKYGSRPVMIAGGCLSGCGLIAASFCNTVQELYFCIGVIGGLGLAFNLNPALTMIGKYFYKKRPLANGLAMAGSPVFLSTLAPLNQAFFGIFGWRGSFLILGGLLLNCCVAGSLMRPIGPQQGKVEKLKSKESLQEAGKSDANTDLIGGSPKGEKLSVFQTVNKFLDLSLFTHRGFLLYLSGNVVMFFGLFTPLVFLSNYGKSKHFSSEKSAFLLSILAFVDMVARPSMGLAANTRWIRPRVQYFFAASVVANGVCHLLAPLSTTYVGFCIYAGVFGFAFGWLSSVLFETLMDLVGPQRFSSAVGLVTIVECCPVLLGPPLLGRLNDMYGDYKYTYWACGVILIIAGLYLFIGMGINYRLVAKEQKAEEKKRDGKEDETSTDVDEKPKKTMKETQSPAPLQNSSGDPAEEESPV", "test": "TP_TRANSPORTER: inhibition of lactate uptake (Lactate:0.1mM, Acetoacetate:50mM, preincubation with aminoxyacetate) in Xenopus laevis oocytes"}, "[3]": {"target": "T1, Monocarboxylate transporter 1 (Rattus norvegicus)", "test": "TP_TRANSPORTER: inhibition of lactate uptake (Lactate:0.1mM, D,L-3-Hydroxybutyrate:50mM, preincubation with aminoxyacetate) in Xenopus laevis oocytes"}, "[4]": {"target": "T1, Monocarboxylate transporter 1 (Rattus norvegicus)", "test": "TP_TRANSPORTER: inhibition of lactate uptake (Lactate:0.1mM, 4-CIN:5mM, preincubation with aminoxyacetate) in Xenopus laevis oocytes"}, "[5]": {"target": "T1, Monocarboxylate transporter 1 (Rattus norvegicus)", "test": "TP_TRANSPORTER: inhibition of lactate uptake (Lactate:0.1mM, alpha-Ketoisocaproate:5mM, preincubation with aminoxyacetate) in Xenopus laevis oocytes"}, "[6]": {"target": "T1, Monocarboxylate transporter 1 (Rattus norvegicus)", "test": "TP_TRANSPORTER: inhibition of lactate uptake (Lactate:0.1mM, Pyruvate:1mM, preincubation with aminoxyacetate) in Xenopus laevis oocytes"}},
  "data": [
    {"compound": "p-Chloromercuribenzenesulfonate", "values": [
      {"measurement": "Activity", "setting": "[1]", "value": 18, "unit": "%"}
    ]},
    {"compound": "CC(=O)CC(=O)O", "values": [
      {"measurement": "Activity", "setting": "[2]", "value": 13, "unit": "%"}
    ]},
    {"compound": "CC(O)CC(=O)O", "note": "(racemic)", "values": [
      {"measurement": "Activity", "setting": "[3]", "value": 7, "unit": "%"}
    ]},
    {"compound": "N#C/C(=C\\c1ccc(O)cc1)C(=O)O", "values": [
      {"measurement": "Activity", "setting": "[4]", "value": 9, "unit": "%"}
    ]},
    {"compound": "CC(C)CC(=O)C(=O)O", "values": [
      {"measurement": "Activity", "setting": "[5]", "value": 13, "unit": "%"}
    ]},
    {"compound": "CC(=O)C(=O)O", "values": [
      {"measurement": "Activity", "setting": "[6]", "value": 23, "unit": "%"}
    ]}
  ]
}
